Assay results published in patent publication US6468560B2, “Controlled release dosage form of [R-(Z)]-α-(methoxyimino)-α-(1-azabicyclo[2.2.2]oct-3yl) acetonitrile monohydrochloride” (SmithKline Beecham p.l.c., priority 1996, dated 2002).

System: human patients
Test: Administration to human patients, efficacy as a cognition enhancer
Format: in vivo
Description: Compound X has active doses around 5-125 microgramme (μg) (calculated as free base). It has been found through administration to human patients that efficacy as a cognition enhancer may be obtained at daily doses below 0.01 mg/kg more particularly 0.003 mg/kg and below, for example 0.0001-0.003 mg/kg, such as 0.00035-0.003 mg/kg. 0.0007-0.003 mg/kg, 0.0001-0.0007 mg/kg or 0.00035-0.002 mg/kg.

CO/N=C(\C#N)[C@H]1CN2CCC1CC2.Cl [Compound X, [R-(Z)]-α-(methoxyimino)-α-(1-azabicyclo [2.2.2]oct-3-yl)acetonitrile monohydrochloride]
active doses (calculated as free base): 5 to 125 µg
daily doses at which efficacy as a cognition enhancer may be obtained (human patients, daily dose): below 0.01 mg/kg
